According to patent US11534434B2 (Karuna Therapeutics, Inc., priority 2019, dated 2022):
pEC50: −log10 of the molar value.

Assays:
[1] = Human liver microsome stability; assay type: in vitro ADME; conditions: human liver microsomes; for microsomal CLint at 100 nM: apparent intrinsic clearance, no unit in table (μL/min/pmol, μL/min/mg or μL/min/Mcell); for Parent at 60 min (%) / half-life at 100 nM: 100 nM, 37° C., tartrate salt
Protocol: Human Liver Microsome Stability
Test compounds were dissolved in DMSO to prepare 10 mM stock solutions, diluted to a final test concentration of 100 nM, and incubated at 37° C. with human liver microsomes. Metabolic stability, expressed as a percent of the parent compound remaining, was assessed at 0, 15, 30, 45, and 60 minutes and calculated by comparing the compound's peak area at the time point relative to that at time-0. The half-life (T1/2) was estimated from the slope of the initial linear range of the logarithmic curve of compound remaining (%) vs. time, assuming first-order kinetics. The apparent intrinsic clearance (CLint, in μL/min/pmol, μL/min/mg or μL/min/Mcell) was calculated according to the following formula: CLint=0.693 T1/2*(mg protein/μL or million cells/μL or pmol CYP isoyme/μL).

[2] = target: T1, human M1 mAChR (Homo sapiens, UniProt P11229); experiment: Whole-cell functional agonist activity, FLIPR Ca2+ release, U2OS-based human M1 mAChR stable cell line; conditions: for pEC50: agonist, FLIPR Ca2+ release, U2OS human M1 cells; for Emax: top of curve, % activity vs MAX control ligand, FLIPR Ca2+
T1 construct: expressed in transfected cells
T1 sequence (P11229 1-460): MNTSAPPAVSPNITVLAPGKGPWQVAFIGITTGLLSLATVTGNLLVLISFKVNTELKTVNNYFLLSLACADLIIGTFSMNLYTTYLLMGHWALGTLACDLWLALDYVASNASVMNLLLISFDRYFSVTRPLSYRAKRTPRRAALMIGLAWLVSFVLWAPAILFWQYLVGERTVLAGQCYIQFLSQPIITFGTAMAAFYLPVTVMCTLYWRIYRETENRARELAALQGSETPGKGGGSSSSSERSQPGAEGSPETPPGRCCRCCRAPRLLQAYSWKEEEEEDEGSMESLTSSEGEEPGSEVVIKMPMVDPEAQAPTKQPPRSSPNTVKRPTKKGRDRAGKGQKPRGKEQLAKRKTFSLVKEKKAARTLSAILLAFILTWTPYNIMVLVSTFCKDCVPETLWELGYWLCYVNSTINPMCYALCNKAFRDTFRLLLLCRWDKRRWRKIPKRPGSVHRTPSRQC
From the text: (§1) Whole-cell functional agonist activity in cells expressing recombinant human muscarinic receptor subtypes.
(§2) ThermoFisher's FLIPR™ (Fluorescence Imaging Plate Reader) was used to quantify Ca^2+ release, a functional effect associated with Gaq-coupled M1 and M5 mAChRs. CisBio's phospho-ERK (pERK) Thr202/Tyr204 was used to evaluate Gai/o-coupled M2 and M4 mAChRs responses.
(§3) One day before the assay, M1, M3, and M5 cells were thawed out and plated at 10,000 cells/well into black-walled, clear-bottom, Poly-D-lysine coated 384-well microplates and incubated at 37° C. and 5% CO2 in MEME+10% FBS+1× penicillin/streptomycin/glutamine, for the M1 and M3 cell lines and F-12+10% FBS+1× penicillin/streptomycin/glutamine for the M5 cell line. […] The M1 and M5 responses were analyzed using the CBIS data analysis suite (ChemInnovation, CA).
(§4) Percentage activity was calculated using the following formula: % Activity=100%×(mean RFU of test sample mean RFU of vehicle control)/(mean MAX RFU control ligand mean RFU of vehicle control) where RFU is relative fluorescence unit. The M2 and the M4 cells were thawed out one day before the assay and plated at 2,000 and 1,000 cells per well, respectively, in […] of DMEM/F12+10% FBS in ProxiPlate 384-well white-walled, white-bottom tissue culture-treated plates and incubated at 37° C. and 5% CO2 overnight. Before the assay, cells were serum-starved at 37° C. in 5% CO2 for 4 hours by replacing culture media with […] of F12 media with 8 mM HEPES. The pERK assay was run according to assay kit instructions with minor volume modifications outlined below.

[3] = target: T2, human M3 mAChR (Homo sapiens, UniProt P20309); experiment: Whole-cell functional agonist activity, FLIPR Ca2+ release, U2OS-based human M3 mAChR stable cell line; conditions: for pEC50: agonist, FLIPR Ca2+ release, U2OS human M3 cells; for Emax: top of curve, % activity vs MAX control ligand, FLIPR Ca2+
T2 construct: expressed in transfected cells
T2 sequence (P20309 whole entry): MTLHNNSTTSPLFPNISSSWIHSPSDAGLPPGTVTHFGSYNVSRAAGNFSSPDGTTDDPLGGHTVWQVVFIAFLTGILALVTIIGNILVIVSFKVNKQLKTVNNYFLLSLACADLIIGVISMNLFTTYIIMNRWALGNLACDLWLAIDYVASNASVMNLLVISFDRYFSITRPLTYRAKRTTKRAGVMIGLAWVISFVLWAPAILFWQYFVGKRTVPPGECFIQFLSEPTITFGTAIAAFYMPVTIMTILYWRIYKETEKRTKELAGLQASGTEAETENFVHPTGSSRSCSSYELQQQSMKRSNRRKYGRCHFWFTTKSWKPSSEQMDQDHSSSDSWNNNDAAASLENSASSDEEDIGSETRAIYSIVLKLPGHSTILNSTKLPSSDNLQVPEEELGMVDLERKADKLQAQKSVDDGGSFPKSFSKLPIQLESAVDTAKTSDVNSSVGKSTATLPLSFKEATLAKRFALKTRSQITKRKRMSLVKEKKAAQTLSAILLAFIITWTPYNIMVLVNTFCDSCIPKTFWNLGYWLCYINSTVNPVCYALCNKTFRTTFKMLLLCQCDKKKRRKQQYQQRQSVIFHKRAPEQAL
From the text: as §1, §2
One day before the assay, M1, M3, and M5 cells were thawed out and plated at 10,000 cells/well into black-walled, clear-bottom, Poly-D-lysine coated 384-well microplates and incubated at 37° C. and 5% CO2 in MEME+10% FBS+1× penicillin/streptomycin/glutamine, for the M1 and M3 cell lines and F-12+10% FBS+1× penicillin/streptomycin/glutamine for the M5 cell line. On the day of the test, the media was aspirated and replaced with […] fluo-4 dye loading buffer (1× dye, 1× additive A and 2.5 mM fresh probenecid in HBSS and 20 mM HEPES) and incubated at 37° C. and 5% CO2 for 45 minutes. After the incubation, cells were removed from the incubator, […] of HBSS and 20 mM HEPES was added for a total volume of […], and the cells were allowed to equilibrate at room temperature for 15 minutes in the dark before compounds were applied, by adding 4× compound solution in […] of HBSS, 0.4% DMSO and 20 mM HEPES buffer (made from a 10 mM compound stock solution in 100% DMSO), and responses were recorded for 2 minutes in FLIPR Tetra after compound administration. The M1 and M5 responses were analyzed using the CBIS data analysis suite (ChemInnovation, CA).
as §4

[4] = target: T3, human M5 mAChR (Homo sapiens, UniProt P08912); experiment: Whole-cell functional agonist activity, FLIPR Ca2+ release, CHOK1-based human M5 mAChR stable cell line; conditions: for pEC50: agonist, FLIPR Ca2+ release, CHOK1 human M5 cells; for Emax: top of curve, % activity vs MAX control ligand, FLIPR Ca2+
T3 construct: expressed in transfected cells
T3 sequence (P08912 1-532): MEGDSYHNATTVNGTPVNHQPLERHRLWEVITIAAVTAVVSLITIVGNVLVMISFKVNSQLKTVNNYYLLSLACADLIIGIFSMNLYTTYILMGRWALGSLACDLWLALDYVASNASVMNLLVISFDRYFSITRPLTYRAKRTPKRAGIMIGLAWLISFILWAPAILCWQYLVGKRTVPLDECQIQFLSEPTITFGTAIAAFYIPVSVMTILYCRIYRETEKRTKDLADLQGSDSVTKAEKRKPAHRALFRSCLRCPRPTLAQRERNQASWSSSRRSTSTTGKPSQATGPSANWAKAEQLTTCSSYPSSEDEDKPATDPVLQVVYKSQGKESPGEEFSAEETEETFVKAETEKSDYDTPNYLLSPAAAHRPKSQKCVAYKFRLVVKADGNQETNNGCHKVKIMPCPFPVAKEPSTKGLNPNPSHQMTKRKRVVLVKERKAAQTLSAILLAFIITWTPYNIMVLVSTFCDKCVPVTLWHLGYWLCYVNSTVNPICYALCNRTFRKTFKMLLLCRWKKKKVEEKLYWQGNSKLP
From the text: as §1, §2, §3, §4

Structure (SMILES) | microsomal CLint at 100 nM [1] [µL/min/mg] | Parent at 60 min (%) [1] [%] | half-life at 100 nM [1] [min] | pEC50 [2] | Emax [2] [%] | pEC50 [3] | Emax [3] [%] | pEC50 [4] | Emax [4] [%]
CCC(F)(F)CCCOc1nsnc1C1=CCCN(C)C1 [Example 9, 3-((4,4-Difluorohexyl)oxy)-4-(1-methyl-1,2,5,6-tetrahydropyridin-3-yl)-1,2,5-thiadiazole] | 576 | 3 | 12 | 7.55 | 46 | < 5.00 | 2 | 6.85 | 40
CN1CCC=C(c2nsnc2OCCCCCC(F)(F)F)C1 [Example 1, 3-(1-Methyl-1,2,5,6-tetrahydropyridin-3-yl)-4-((6,6,6-trifluorohexyl)oxy)-1,2,5-thiadiazole] | 447 | 7 | 16 | 8.43 | 90 | < 5.00 | 16 | 7.65 | 85
CN1CCC=C(c2nsnc2OCCCCC(C)(F)F)C1 [Example 8, 3-((5,5-Difluorohexyl)oxy)-4-(1-methyl-1,2,5,6-tetrahydropyridin-3-yl)-1,2,5-thiadiazole] | 711 | 2 | 10 | 8.24 | 87 | < 5.00 | 7 | 7.57 | 85
CCCCC(F)(F)COc1nsnc1C1=CCCN(C)C1 [Example 11, 3-((2,2-Difluorohexyl)oxy)-4-(1-methyl-1,2,5,6-tetrahydropyridin-3-yl)-1,2,5-thiadiazole] | 2000 | 7 | 3 | 7.54 | 32 | < 5.00 | 3 | 5.64 | 45

The next molecules have a higher pEC50 [2] than those just listed; values first:

microsomal CLint at 100 nM [1] [µL/min/mg] | Parent at 60 min (%) [1] [%] | half-life at 100 nM [1] [min] | pEC50 [2] | Emax [2] [%] | pEC50 [3] | Emax [3] [%] | pEC50 [4] | Emax [4] [%] | Structure (SMILES)
413 | 8 | 17 | 8.60 | 94 | < 5.00 | 11 | 7.83 | 95 | CN1CCC=C(c2nsnc2OCCCCCC(F)F)C1 [Example 6, 3-((6,6-difluorohexyl)oxy)-4-(1-methyl-1,2,5,6-tetrahydropyridin-3-yl)-1,2,5-thiadiazole]
553 | 3 | 13 | 8.51 | 93 | < 5.00 | 7 | 7.88 | 90 | CN1CCC=C(c2nsnc2OCCCCCCF)C1 [Example 7, 3-((6-Fluorohexyl)oxy)-4-(1-methyl-1,2,5,6-tetrahydropyridin-3-yl)-1,2,5-thiadiazole]
